# Measured values from ChEMBL document CHEMBL1201862, “PubChem BioAssay data set” (2004).
# The source made the active and inactive calls. For most assays here, no stated cut-off is given here; in the data, actives have a measured IC50 and inactives only a lower limit.
# Target: T1, Sentrin-specific protease 6 (Homo sapiens, UniProt Q9GZR1)
# T1 sequence (Q9GZR1 whole entry): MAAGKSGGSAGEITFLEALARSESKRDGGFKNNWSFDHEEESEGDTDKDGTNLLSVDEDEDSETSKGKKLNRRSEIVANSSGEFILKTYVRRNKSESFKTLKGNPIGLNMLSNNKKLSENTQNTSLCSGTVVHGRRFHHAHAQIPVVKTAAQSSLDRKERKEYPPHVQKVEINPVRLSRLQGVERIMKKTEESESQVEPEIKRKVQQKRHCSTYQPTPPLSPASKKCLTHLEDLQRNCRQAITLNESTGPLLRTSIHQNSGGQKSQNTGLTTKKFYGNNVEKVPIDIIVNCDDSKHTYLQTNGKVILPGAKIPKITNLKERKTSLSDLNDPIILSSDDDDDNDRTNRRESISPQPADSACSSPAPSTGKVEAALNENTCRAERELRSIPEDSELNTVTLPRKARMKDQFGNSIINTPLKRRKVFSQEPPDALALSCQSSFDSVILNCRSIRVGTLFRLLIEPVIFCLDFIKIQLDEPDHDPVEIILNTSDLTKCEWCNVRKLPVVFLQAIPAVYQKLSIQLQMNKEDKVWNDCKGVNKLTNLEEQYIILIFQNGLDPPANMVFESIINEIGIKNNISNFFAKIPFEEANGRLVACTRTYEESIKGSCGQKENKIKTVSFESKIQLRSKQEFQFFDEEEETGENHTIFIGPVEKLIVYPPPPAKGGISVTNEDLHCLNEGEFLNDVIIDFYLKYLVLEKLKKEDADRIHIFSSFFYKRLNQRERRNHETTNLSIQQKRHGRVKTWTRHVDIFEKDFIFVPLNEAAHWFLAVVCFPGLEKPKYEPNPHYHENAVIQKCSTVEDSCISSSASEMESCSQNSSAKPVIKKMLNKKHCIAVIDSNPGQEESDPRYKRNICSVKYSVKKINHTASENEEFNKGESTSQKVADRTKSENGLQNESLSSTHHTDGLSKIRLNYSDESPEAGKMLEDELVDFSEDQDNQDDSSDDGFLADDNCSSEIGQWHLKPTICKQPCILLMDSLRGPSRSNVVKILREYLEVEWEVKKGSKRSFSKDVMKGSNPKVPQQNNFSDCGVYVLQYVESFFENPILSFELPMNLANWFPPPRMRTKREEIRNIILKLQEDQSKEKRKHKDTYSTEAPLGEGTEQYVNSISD
# Assay: not given
# Assay type: functional
# Details: not given
# 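Wherever AC50 is given: cells exposed to compound for roughly 70 hours or longer before luminescence read.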
row,SMILES,IC50
1,O=C1/C(=C/c2cccc(F)c2)Oc2cc(O)ccc21,15.9 µM (active)
2,COc1cc(OC)cc(C(=O)Nc2ccc(Nc3ccccc3)cc2)c1,17.8 µM (active)
3,Cc1nc(Nc2ccc(C(=O)O)cc2)sc1-c1ccccc1,0.787 µM (active)

# Target: T2, Caspase-3 (Homo sapiens, UniProt P42574)
# T2 sequence (P42574 whole entry): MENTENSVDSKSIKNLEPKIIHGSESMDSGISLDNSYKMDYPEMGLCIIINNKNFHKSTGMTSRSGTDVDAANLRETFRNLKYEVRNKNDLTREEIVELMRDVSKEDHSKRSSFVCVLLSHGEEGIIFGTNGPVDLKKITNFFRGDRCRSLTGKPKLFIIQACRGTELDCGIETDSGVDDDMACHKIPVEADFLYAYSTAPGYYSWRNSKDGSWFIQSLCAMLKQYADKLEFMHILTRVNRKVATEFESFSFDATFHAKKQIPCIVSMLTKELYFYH
# Assay: SAR Analysis of small molecule inhibitors of Sentrin-specific proteases (SENPs) using a Caspase-3 Selectivity assay. [Related pubchem assays (depositor defined):AID2540, AID2599, AID434973, AID489001]
# Assay type: functional
# Details: not given
row,SMILES,IC50
1,O=C(Nc1ccc(F)c(F)c1)c1ccc2c(c1)OCO2,3.11 µM (active)
2,O=C1/C(=C/c2cccc(F)c2)Oc2cc(O)ccc21,9.25 µM (active)
3,N#Cc1c(NC(=O)c2ccc(Cn3cc(Br)cn3)o2)sc2c1CCCCC2,> 99 µM (inactive)
4,O=C(Nc1nc2ccc(Cl)cc2s1)c1ccc(C(F)(F)F)cc1,> 99 µM (inactive)
5,CC(=O)Oc1ccccc1/C=C(\C)c1noc(-c2ccccc2O)n1,> 99 µM (inactive)

# System: SN12K1
# Assay: cells
# Assay type: functional
# Details: Homo sapiens
row,SMILES,GI50
1,O=C(O)/C=C/c1c[nH]c(=O)[nH]c1=O,> 500 µM (inactive)
2,Nc1nc(N)c2nc(CNc3ccc(C(=O)NC(CCCNC(=O)c4ccccc4C(=O)O)C(=O)O)cc3)cnc2n1 (stereo unspecified),< 0.01 µM (active)
3,CCOC(=O)C(C)N1C(=O)c2ccccc2S1(=O)=O (stereo unspecified),> 100 µM (inactive)
4,Cc1c2cnccc2c(C)c2c1c1ccccc1n2CCCCCCCl,30 µM (inactive)
5,CCCCCCCC/C=C\CCCCCCCCCCCC(=O)O [ERUCIC ACID],9.62 µM (inactive)

# Target: T2, Caspase-3
# Assay: not given
# Assay type: functional
# Details: not given
row,SMILES,IC50
1,O=C1/C(=C/c2cccc(F)c2)Oc2cc(O)ccc21,18.2 µM (active)
2,COc1cc(OC)cc(C(=O)Nc2ccc(Nc3ccccc3)cc2)c1,30.3 µM (active)
3,Cc1nc(Nc2ccc(C(=O)O)cc2)sc1-c1ccccc1,10.9 µM (active)

# Target: T3, Sentrin-specific protease 7 (Homo sapiens, UniProt Q9BQF6)
# T3 sequence (Q9BQF6 whole entry): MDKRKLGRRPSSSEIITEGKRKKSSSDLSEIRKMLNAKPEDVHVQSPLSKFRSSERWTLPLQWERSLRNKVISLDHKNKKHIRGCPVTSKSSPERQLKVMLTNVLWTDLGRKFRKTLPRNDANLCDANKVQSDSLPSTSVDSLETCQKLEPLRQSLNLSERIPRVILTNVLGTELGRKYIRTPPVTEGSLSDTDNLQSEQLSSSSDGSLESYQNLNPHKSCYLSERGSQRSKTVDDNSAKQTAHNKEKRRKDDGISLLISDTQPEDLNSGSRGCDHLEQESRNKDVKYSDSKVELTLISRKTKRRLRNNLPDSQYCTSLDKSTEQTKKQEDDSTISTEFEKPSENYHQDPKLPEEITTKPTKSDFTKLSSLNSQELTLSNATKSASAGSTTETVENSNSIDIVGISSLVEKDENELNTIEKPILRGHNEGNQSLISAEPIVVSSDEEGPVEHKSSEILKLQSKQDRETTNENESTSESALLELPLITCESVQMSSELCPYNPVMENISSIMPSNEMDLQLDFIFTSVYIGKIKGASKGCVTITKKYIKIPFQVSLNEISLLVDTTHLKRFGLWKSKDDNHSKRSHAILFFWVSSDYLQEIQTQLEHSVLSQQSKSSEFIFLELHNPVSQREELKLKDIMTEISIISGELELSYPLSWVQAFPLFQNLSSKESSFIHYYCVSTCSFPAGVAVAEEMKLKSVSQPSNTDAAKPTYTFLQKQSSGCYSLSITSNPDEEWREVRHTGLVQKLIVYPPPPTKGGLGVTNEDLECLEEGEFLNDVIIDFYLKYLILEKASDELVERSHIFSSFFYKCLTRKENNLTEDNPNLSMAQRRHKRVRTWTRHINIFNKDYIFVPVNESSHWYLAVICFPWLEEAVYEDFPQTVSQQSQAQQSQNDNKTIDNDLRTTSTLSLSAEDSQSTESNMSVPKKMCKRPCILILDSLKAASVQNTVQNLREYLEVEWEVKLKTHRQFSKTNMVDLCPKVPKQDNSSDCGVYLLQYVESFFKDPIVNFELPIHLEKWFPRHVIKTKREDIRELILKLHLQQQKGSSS
# Assay: not given
# Assay type: functional
# Details: not given
row,SMILES,IC50
1,O=C1/C(=C/c2cccc(F)c2)Oc2cc(O)ccc21,6.09 µM (active)
2,COc1cc(OC)cc(C(=O)Nc2ccc(Nc3ccccc3)cc2)c1,5.27 µM (active)
3,Cc1nc(Nc2ccc(C(=O)O)cc2)sc1-c1ccccc1,0.797 µM (active)

# System: not listed separately
# Assay: Luminescence Cell-Based Dose Retest to Confirm Inhibitors of Cancer Stem Cells. [Related pubchem assays (depositor defined):AID2717, AID2721]
# Assay type: functional
# Details: Homo sapiens
row,SMILES,AC50
1,N#Cc1c(NC(=O)c2ccc(Cn3cc(Br)cn3)o2)sc2c1CCCCC2,2.97 µM (active)
2,COc1cc(OC)cc(C(=O)Nc2ccc(Nc3ccccc3)cc2)c1,4.09 µM (active)

# Target: T3, Sentrin-specific protease 7
# Assay: SENP7 protease inhibitors, SAR follow-up, biochemical, luminescence (AID 504497)
# Assay type: functional
# Details: not given
row,SMILES,IC50
1,O=C(Nc1ccc(F)c(F)c1)c1ccc2c(c1)OCO2,2.85 µM (active)
2,O=C1/C(=C/c2cccc(F)c2)Oc2cc(O)ccc21,4.4 µM (active)
3,N#Cc1c(NC(=O)c2ccc(Cn3cc(Br)cn3)o2)sc2c1CCCCC2,> 99 µM (inactive)
4,O=C(Nc1nc2ccc(Cl)cc2s1)c1ccc(C(F)(F)F)cc1,> 99 µM (inactive)
5,CC(=O)Oc1ccccc1/C=C(\C)c1noc(-c2ccccc2O)n1,> 99 µM (inactive)

# Target: T4, Sentrin-specific protease 8 (Homo sapiens, UniProt Q96LD8)
# T4 sequence (Q96LD8 whole entry): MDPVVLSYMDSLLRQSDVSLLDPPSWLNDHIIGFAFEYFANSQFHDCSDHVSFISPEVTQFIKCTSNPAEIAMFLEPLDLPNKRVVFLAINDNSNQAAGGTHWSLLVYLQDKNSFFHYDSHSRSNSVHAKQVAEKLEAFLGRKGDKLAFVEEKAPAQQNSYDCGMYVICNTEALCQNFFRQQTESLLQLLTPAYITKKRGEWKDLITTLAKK
# Assay: not given
# Assay type: functional
# Details: not given
row,SMILES,IC50
1,O=C1/C(=C/c2cccc(F)c2)Oc2cc(O)ccc21,2.29 µM (active)
2,COc1cc(OC)cc(C(=O)Nc2ccc(Nc3ccccc3)cc2)c1,22.5 µM (active)
3,Cc1nc(Nc2ccc(C(=O)O)cc2)sc1-c1ccccc1,1.88 µM (active)

# Target: T1, Sentrin-specific protease 6
# Assay: SAR Analysis of small molecule inhibitors of Sentrin-specific protease 6 (SENP6) using a Luminescent assay. [Related pubchem assays (depositor defined):AID2582, AID2599]
# Assay type: functional
# Details: not given
row,SMILES,IC50
1,O=C(Nc1ccc(F)c(F)c1)c1ccc2c(c1)OCO2,8.66 µM (active)
2,O=C1/C(=C/c2cccc(F)c2)Oc2cc(O)ccc21,12 µM (active)
3,N#Cc1c(NC(=O)c2ccc(Cn3cc(Br)cn3)o2)sc2c1CCCCC2,> 99 µM (inactive)
4,O=C(Nc1nc2ccc(Cl)cc2s1)c1ccc(C(F)(F)F)cc1,> 99 µM (inactive)
5,CC(=O)Oc1ccccc1/C=C(\C)c1noc(-c2ccccc2O)n1,> 99 µM (inactive)

# Target: T4, Sentrin-specific protease 8
# Assay: SENP8 protease inhibitors, SAR follow-up, biochemical, luminescence (AID 504501)
# Assay type: functional
# Details: not given
row,SMILES,IC50
1,O=C(Nc1ccc(F)c(F)c1)c1ccc2c(c1)OCO2,8.53 µM (active)
2,O=C1/C(=C/c2cccc(F)c2)Oc2cc(O)ccc21,15.8 µM (active)
3,N#Cc1c(NC(=O)c2ccc(Cn3cc(Br)cn3)o2)sc2c1CCCCC2,> 99 µM (inactive)
4,O=C(Nc1nc2ccc(Cl)cc2s1)c1ccc(C(F)(F)F)cc1,> 99 µM (inactive)
5,CC(=O)Oc1ccccc1/C=C(\C)c1noc(-c2ccccc2O)n1,> 99 µM (inactive)

# System: P388
# Assay: cells
# Assay type: functional
# Details: Mus musculus
row,SMILES,GI50
1,O=C(O)/C=C/c1c[nH]c(=O)[nH]c1=O,> 500 µM (inactive)
2,Nc1nc(N)c2nc(CNc3ccc(C(=O)NC(CCCNC(=O)c4ccccc4C(=O)O)C(=O)O)cc3)cnc2n1 (stereo unspecified),< 0.01 µM (active)
3,C[C@@]1(CO)[C@H](O)CC[C@@]2(C)[C@H]1CC[C@H]1C[C@@H]3C[C@@]12CC[C@@]3(O)COC(=O)CN,1.11 µM (active)
4,CCOC(=O)C(C)N1C(=O)c2ccccc2S1(=O)=O (stereo unspecified),> 100 µM (inactive)
5,Cc1c2cnccc2c(C)c2c1c1ccccc1n2CCCCCCCl,1.77 µM (inactive)
6,CCCCCCCC/C=C\CCCCCCCCCCCC(=O)O [ERUCIC ACID],11.2 µM (inactive)

# System: P388/ADR
# Assay: cells
# Assay type: functional
# Details: Mus musculus
row,SMILES,GI50
1,O=C(O)/C=C/c1c[nH]c(=O)[nH]c1=O,> 500 µM (inactive)
2,Nc1nc(N)c2nc(CNc3ccc(C(=O)NC(CCCNC(=O)c4ccccc4C(=O)O)C(=O)O)cc3)cnc2n1 (stereo unspecified),< 0.01 µM (active)
3,C[C@@]1(CO)[C@H](O)CC[C@@]2(C)[C@H]1CC[C@H]1C[C@@H]3C[C@@]12CC[C@@]3(O)COC(=O)CN,0.481 µM (active)
4,CCOC(=O)C(C)N1C(=O)c2ccccc2S1(=O)=O (stereo unspecified),> 100 µM (inactive)
5,Cc1c2cnccc2c(C)c2c1c1ccccc1n2CCCCCCCl,22.8 µM (inactive)
6,CCCCCCCC/C=C\CCCCCCCCCCCC(=O)O [ERUCIC ACID],14.4 µM (inactive)
